Assay results: patent US10611720B2, “Composition for preventing or treating hair loss including benzene diamine derivative” (UNIST(ULSAN NATIONAL INSTITUTE OF SCIENCE AND TECHNOLOGY), priority 2017, dated 2020)

How the values were obtained:
[1] = system: APP/PS/Tau mouse (hair loss-induced mouse model); test: Hair growth change in hair loss mouse model, oral administration; type: in vivo; conditions: APP/PS/Tau mice, oral 100 μg/Kg twice a week for 2 months
Experimental: An experimental group was prepared by orally administering the control group with the benzene diamine derivate at a concentration of 100 μg/Kg/0.1 ml using a zonde twice a week, and then changes in appearance were observed.
In detail, APP/PS/Tau was purchased from Jackson lab (BAR HARBOR, USA), and APP/Tau female and APP/PSen1de9 purchased from Taconic (Hudson, USA) were cross-mated for 6 generations, and 4-month-old mouse models were obtained from F1. The mouse models were characterized by appearance of hair loss. The hair loss mouse models were divided into groups of 6 mice, and among the hair loss mouse models, the normal group and the control group were orally administered with a phosphate buffer carrier (PBS) for 2 months, and the experimental group was orally administered with 100 μl of N^1-(pyridin-2-ylmethyl)benzene-1,4-diamine (Compound 1) at a concentration of 100 μg/Kg twice a week for 2 months. Thereafter, changes in their appearance were compared.

COL17A1 = COL17A1 expression in hDPC cells under oligomer Aβ (confocal fluorescence); type: cell-based, human; conditions: hDPCs, 2 nM oligomer Aβ + 25 μg/ml compound, 3 days; normal group 143±11, oligomer Aβ control 16±6
Experimental: (§1) As in Example 2, examination was performed by using oligomer Aβ as a cytotoxic material for hDPC.
(§2) At 3 days after treatment of the derivatives, the cells were fixed with 4% paraformaldehyde solution, and washed with PBS, and then fluorescence of ROI (relative fluorescence intensity) was measured at 488 nm by a confocal microscope (CONFOCAL, LSM710, Carl Zeiss, Germany) to examine SOX-9 and Cola17a1 expressions. As in Example 2, examination was performed by using oligomer Aβ as a cytotoxic material for hDPC.
(§3) At 3 days after treatment of the derivatives, the cells were fixed with 4% paraformaldehyde solution, and washed with PBS, and then fluorescence was measured at 488 nm/565 nm by a confocal microscope (CONFOCAL, LSM710, Carl Zeiss, Germany) to examine SOX-9 and Cola17a1 expressions. As in Example 2, examination was performed by using oligomer Aβ as a cytotoxic material for hDPC. […] COL17A1 expression was inhibited in the cells (control group C) treated with the cytotoxic oligomer Aβ, as compared with the normal group.

SOX-9 [2] = test: SOX-9 expression in hDPC cells under oligomer Aβ (confocal fluorescence); type: cell-based, human; conditions: hDPCs, 2 nM oligomer Aβ + 25 μg/ml compound, 3 days; for SOX-9 expression (average fluorescence intensity): normal group 220±12, oligomer Aβ control 12±4; for SOX-9 expression (confocal imaging, in words): Example 4, compared with cells treated with oligomer Aβ
Experimental: as §1, §2, §3

monomer/oligomer Aβ = test: Monomer/oligomer Aβ expression in skin of hair loss mouse model, oral administration; type: in vivo; conditions: APP/PS/Tau mice, oral 100 μg/Kg twice a week, 2 months
SOX-9 [3] = test: SOX-9 expression in skin of hair loss mouse model, oral administration; type: in vivo; conditions: APP/PS/Tau mice, oral 100 μg/Kg twice a week, 2 months
Experimental: (§4) Accordingly, the present inventors examined whether expressions of hair growth stimulating factors, SOX-2 and SOX-9 were increased in hair loss animal models by the benzene diamine derivates of the present disclosure. In order to examine SOX-2 and SOX-9 expressions inside skin tissues, APP/PS/Tau mouse which is a hair loss-induced mouse model was selected as a control group and C57BL6 mouse was selected as a normal group, as in Example 5. An experimental group was prepared by orally administering the control group with the benzene diamine derivate at a concentration of 100 μg/Kg/0.1 ml using a zonde twice a week. 2 months later, incision of the skin was performed under local anesthesia, and the skin tissues were fixed in 4% paraformaldehyde solution for 24 hours, and fixed in a plastic mold with O.C.T. Compound (SAKURA, USA) for cryostat sectioning. […] Thereafter, the plate was put on a slide glass and covered with a cover slide, and stored in a dark acrylic box, and fluorescence imaging was observed under a confocal microscope (LSM710, Carl Zeiss, Germany) by 405/488/565 nm laser. […]

[4] = system: human hair follicle dermal papilla cells (hDPCs); test: Cell viability (MTT) of hDPCs under oligomer Aβ-induced cytotoxicity; conditions: hDPCs treated with 2 nM oligomer Aβ and 25 μg/ml compound, 72 hours, as compared with group (N)
Experimental: In order to examine effects of the benzene diamine derivates of the present disclosure on improvement of cell viability of hair follicular cells, human hair follicle dermal papilla cells (hDPCs) were treated with the benzene diamine derivates, and cell viability was examined. […] Therefore, examination was performed by using oligomer Aβ as a toxic material for hDPC.
In detail, 2×10^3 hDPCs were dispensed in a multi 96-well plate containing a DMEM medium supplemented with 10% FBS, and cultured in a CO2 incubator (Thermo Scientific) at 37° C., 5% CO2 for 24 hours. Thereafter, experiments were performed by using a normal group which was treated with only cells, a control group which was a group treated with 10 μl of 2 nM oligomer Aβ (oAβ) previously synthesized, and an experimental group which is prepared by treating the normal group with the same concentration of oligomer Aβ and 25 μg/ml of each benzene diamine derivate sample in water or DMSO. To examine cell viability at 72 hours after treatment of the cell line with the sample, 20 μl of 2% MTT solution was added to the cell culture medium. 3 hours later, to terminate the reaction, the culture medium was removed by aspiration, and 50 μl of DMSO was added. 30 minutes later, the reaction was terminated. Thereafter, OD value was measured at 570 nm by using a microplate reader (BioTek, Synergy HT, USA).

SOX-2 = SOX-2 expression in skin of hair loss mouse model, oral administration; type: in vivo; conditions: APP/PS/Tau mice, oral 100 μg/Kg twice a week, 2 months
Experimental: as §4

SMILES	hair loss (changes in appearance) [1]	COL17A1 expression (average fluorescence intensity) (COL17A1) [AFI]	SOX-9 expression (average fluorescence intensity) (SOX-9 [2]) [AFI]	monomer/oligomer Aβ expression in skin (monomer/oligomer Aβ)	SOX-9 expression in skin (SOX-9 [3])	cell viability [4] [%]	SOX-2 expression in skin (SOX-2)	SOX-9 expression (confocal imaging, in words) (SOX-9 [2])
Nc1ccc(NCc2ccccn2)cc1 [Compound 1, N^1-(pyridin-2-ylmethyl)benzene-1,4-diamine]	remarkable improvement in hair loss	152±13	134±23	decreased	remarkably increased	82±2	remarkably expressed close to the normal group	–
c1ccc(CNc2ccc(N3CCOCC3)cc2)nc1 [Compound 2, 4-morpholino-N-(pyridin-2-ylmethyl)aniline]	–	234±31	187±23	–	–	87±5	–	–
CN(C)c1ccc(N)cc1 [Compound 3, N^1,N^1-dimethyl-1,4-phenylenediamine]	–	24±6	157±21	–	–	–	–	–
CC(=O)Nc1ccc(N(C)C)cc1 [Compound 4, N-(4-dimethylamino)phenyleneacetamide]	–	2±1	446±110	–	–	74±3	–	more strongly promoted the expression
CC(=O)Nc1ccc(N)cc1 [Compound 5, N-(4-aminophenyl)acetamide]	–	3±1	325±45	–	–	77±1	–	more strongly promoted the expression
CC(=O)Nc1ccc(NC(C)=O)cc1 [Compound 6, N,N-(1,4-phenylene)diacetate Amide]	–	226±34	267±56	–	–	86±1	–	–
